According to patent US20020177554A1, “Novel peptides for use in treatment of T-cell mediated cartilage destruction in autoimmune diseases” (Akzo Nobel N.V., priority 1995, published 2002):
Ends that are not written are not given here.

B1: HAG2 (peptide)
peptide: H-AGWLADRSVRYPI-OH
notes: Synthetic peptide with free amino and carboxy termini; The residue range on HAG is not tied to this label
B2: HAG3 (peptide)
peptide: H-AGWLADGSLRYPI-OH
notes: as for B1

What was measured:
[1] = test system: PBMC from RA patients; assay: Proliferative responses of PBMC from RA patients ([3H]thymidine incorporation); assay type: cell-based, human; settings: peptide 50 μg/ml, mean of three or four measurements
[2] = molecular target: T1, HLA-DR4 (DRB1*0401) molecules, affinity purified (human); assay: semi-quantitative competition with biotinylated IHA(307-319)F for purified HLA-DR; relative IC50 grade read by eye from ECL blot
T1 construct: mature; Used at 0.05-5 uM in the assay

[3] = molecular target: T1, HLA-DR4 (DRB1*0401) molecules, affinity …; assay: semi-quantitative competition with biotinylated IHA(307-319)F for purified HLA-DR; range taken from the table legend for grade ++
[4] = molecular target: T1, HLA-DR4 (DRB1*0401) molecules, affinity …; assay: semi-quantitative competition with biotinylated IHA(307-319)F for purified HLA-DR; range taken from the table legend for grade +

Molecule | Proliferative response of PBMC, [3H]TdR incorporation ([1]; donor 191 (RA), background 320) [count per 5 min] | Proliferative response of PBMC, [3H]TdR incorporation ([1]; donor 209 (RA), background 405) [count per 5 min] | relative binding affinity IC50 (eIC50) [2] [µM] | IC50 [3] [µM] | also measured
AGWLADGSLRYPI [HAG3] | 233 | 1094 |  |  | 
AGWLADRSVRYPI [HAG2] | 1061 | 1115 |  |  | 
AGWLSDGSVQYPI [HCLP1] |  | 1503 |  |  | Proliferative response of PBMC, [3H]TdR incorporation ([1]; donor 227 (RA), background 833): 1964 count per 5 min
B1 |  |  | 1 to 10 | 1 to 10 | 
AGWLSDGSVQYPI (also called HCIP1) [HCLP1] |  |  | 10 to 100 |  | IC50 [4]: 10 to 100 µM
B2 |  |  | 1 to 10 | 1 to 10 | 
